Assay results as given in US5747545A, “Method of preventing NMDA receptor complex-mediated Neuronal damage” (priority 1995, dated 1998).

Legend:
[1] = test system: NMDA receptor (rat cortical neurons in culture); experiment: Digital fura-2 imaging of NMDA-evoked intracellular [Ca2+] in cultured cortical neurons; type: cell-based, rat (Sprague-Dawley); conditions: 50 μM NMDA; Examples 1-2; NTG 100 μM in Example 2
Experimental: The concentration of intracellular free Ca^2+ ([Ca^2+ ]i) is measured in neonatal cortical neurons by digital imaging microscopy with the Ca^2+ sensitive fluorescent dye fura 2, as follows. The same cortical neuronal cultures as described above are used. During Ca^2+ measurements, unless otherwise stated the fluid bathing the neurons consists of Hanks' balanced salts: 137.6 mM NaCl, 1 mM NaHCO3, 0.34 mM Na2 HPO4, 0.44 mM KH2 PO4, 5.36 mM KCl, 1.25 mM CaCl2, 0.5 mM MgSO4, 0.5 mM MgCl2, 5 mM Hepes NaOH, 22.2 mM glucose, and sometimes with phenol red indicator (0.001% v/v); pH 7.2. NMDA (in the absence Mg^++), glutamate, and other substances are usually applied to the neurons by pressure ejection after dilution in this bath solution. Neuronal [Ca^2+ ]i is analyzed with fura 2-acetoxy-methyl ester (AM) as described [Grynkiewicz, et al., J. Biol. Chem. 260:3440 (1985); Williams et al., Nature 318:558 (1985); Connor et al., J. Neurosci. 7:1384 (1987); Connor et al., Science 240:649 (1988); Cohan et al., J. Neurosci. 7:3588 (1987); Mattson, et al., ibid, 9:3728 (1989)]. After adding Eagle's minimum essential medium containing 10 μM fura 2-AM to the neurons, the cultures are incubated at 37° C. in a 5% CO2 /95% air humidified chamber and then rinsed. The dye is loaded, trapped, and deesterified within 1 hour, as determined by stable fluorescence ratios and the effect of the Ca^2+ ionophore ionomycin on [Ca^2+ ]i is measured. During Ca^2+ imaging, the cells are incubated in a solution of Hepes-buffered saline with Hanks' balanced salts. The [Ca^2+ ]i is calculated from ratio images that are obtained by measuring the fluorescence at 500 nm that is excited by 350 and 380 nm light with a DAGE MTI 66 SIT or QUANTEX QX-100 Intensified CCD camera mounted on a Zeiss Axiovert 35 microscope. Exposure time for each picture is 500 ms. Analysis is performed with a Quantex (Sunnyvale, Calif.) QX7-210 image-processing system. Since cells are exposed to ultraviolet light only during data collection (generally less than a total of 20 s per cell), bleaching of fura 2 is minimal.
In this experiment, the effect of NTG on intracellular [Ca^++ ] increases induced by NMDA were followed using digital [Ca^++ ] imaging techniques, based on the dye fura-2.
Specifically, the model for NMDA-mediated neurotoxicity involves exposure of cultured rat cortical neurons to NMDA in the presence of glycine (a co-agonist).
Cortical cultures were derived from embryonic (fetal day 15 or 16) Sprague-Dawley rats as described previously (Dichter, 1978; Rosenberg and Aizenman, 1989). […]

[2] = test system: cerebral cortical infarct (rat pups); experiment: Bilateral carotid ligation plus hypoxia stroke model in rat pups pretreated with NTG patches; type: in vivo
Experimental: Rat pups were treated with nitroglycerin (NTG) approximately for 36-48 hours before performing bilateral carotid ligations. The dosing regimen for the 3 groups of rat pups used to generate the data was as follows.
Hair was removed from the abdominal region of the rat pup using a razor. One-quarter of a NTG patch (Minitran) was applied to the shaved area. A quarter patch of this size corresponds to a dose of 0.6 mg/24 hours (whole patch 2.4 mg/24 hr). Between 12 and 16 hours later, another quarter-patch was applied to the rat's abdomen, leaving the first on. This procedure was again repeated 12-16 hours later. Each rat pup received 3 or 4 quarter patches before surgery, which was performed two days later and consisted of bilateral carotid ligation followed by hypoxia to induce a stroke.
Using this procedure of inducing NTG systemic tolerance, the following results were obtained: In the control group, 7/11 (64%) of the animals suffered large ([…]) cerebral cortical infarcts. In contrast, in the NTG-treated group, only 2/13 (15%) of the animals had any discernible cerebral infarct at all (P<0.03 by Fisher's exact test).
Animals are operated on (to induce a stroke) approximately 48 hr after the initial administration of NTG patches.

[3] = intravenous NTG, human; cited from earlier work

In the case of O=[N+]([O-])OCC(CO[N+](=O)[O-])O[N+](=O)[O-] [NTG, 1,2,3-propanetriol trinitrate], the “Effect on NMDA-evoked [Ca2+]i response” value [1] is reported as “persistently decreased the NMDA-evoked [Ca^2+ ]i response”, the “Animals with any discernible cerebral infarct (number/total)” value ([2]; NTG patches approx. 36-48 h before bilateral carotid ligation, control 7/11 (64%) large infarcts, P<0.03 Fisher's exact test) is reported as 2/13 and the “Animals with any discernible cerebral infarct (percent)” value ([2]; NTG patches approx. 36-48 h before bilateral carotid ligation, control 64%, P<0.03) is reported as 15%. The Cerebral protection ([2]; NTG transdermal patches, tolerance-inducing procedure) was “cerebral protective” and the “Time to systemic tolerance, intravenous continuous infusion” value [3] was 18 to 24 h.
